# US12264163B2, “Compounds and methods for treating fibrotic pathologies” (Mayo Foundation for Medical Education and Research, priority 2019, dated 2025)
# Tests used:
# Assay type in all cases: cell-based, human
# [1] = system: lung fibroblasts; test: Fibroblast proliferation (counting DAPI nuclei)
# Experimental: IPF fibroblast and Normal lung fibroblast co-culture proliferation. Cell are prelabelled with fluorescent dyes (red and green) and then cocultured at a ratio of about 1:1 in 96 well plates. Cell counts are determined every 24 hours and plotted as a ratio of IPF/HLF cells. In the control wells the IPF cells outgrow and take over the well. N=2.
# Proliferation of lung fibroblasts (IMR-90 cells) measured for 4 days in the presence of GPCR agonists ET-1 (100 nM) and LPA (10 μM)+/−10 μM DHX. Cells were fixed and counted with DAPI at the end of each day. N=3 technical triplicates.
# Adult lung fibroblasts plated into 96-well plates, stimulated with 2 ng/mL TGFβ and compounds at the indicated concentration. Proliferation determined by fixing and counting DAPI nuclei using a Cytation 5. N=2.
# Fibroblasts were stimulated with 2 ng/mL TGFβ and treated with compound 1 (MS-9) at the indicated concentration (0.1 μM, 1 μM, and 10 μM). Proliferation determined by fixing and counting DAPI nuclei using a Cytation.
# [2] = system: Collagen I and Fibronectin; test: Immuno-ECM: TGFβ-induced collagen I and fibronectin accumulation; conditions: IPF patient-derived fibroblasts, TGFβ 48 hours then DHX 24 hours
# Experimental: IPF patient-derived fibroblasts grown at confluence were pre-stimulated with 2 ng/mL TGFβ for 48 hours and then treated with DHX (10 μM)+2 ng/mL TGFβ for an additional 24 hours prior to fixation. Cell derived matrix is measured using antibodies for Collagen I and Fibronectin. […] Representative traction maps are shown from cells plated onto 6.4 kPa matrices treated with the indicated concentration of DHX. RMS tractions were determined in two independent experiments; box and whisker plots show min to max, quartile, and mean from one representative experiment (****p<0.0001, *p<0.05 vs. 0.1% DMSO vehicle control).
# Immuno-ECM Adapting from previously published methods, IPF patient-derived fibroblasts were plated to confluence in clear-bottom 96-well plates. After cells attached, the medium was swapped for EMEM containing 0.10% FBS±2 ng/mL TGF-β. After 48 hours the indicated concentration of DHX or DMSO control was added to each well and incubated for 24 hours. WST-1 viability reagent was added to each well (Sigma-Aldrich) and measured on a Flexstation 3 (Molecular Devices) plate reader. […] Plates were imaged via a Li-Cor OdysseyXL system with quantification performed via densitometry. Data are expressed as IR intensity relative to WST-1 signal absorbance in order to account for any potential compound toxicity.
# [3] = system: hepatic stellate cells; test: TGFβ-mediated hepatic stellate cell activation, western blot of αSMA and fibronectin; conditions: HSCs, TGFβ 48 hours, DHX 10 μM
# Experimental: HSCs were stimulated with TGFβ for 48 hours+/−DHX (10 μM) prior to total protein isolation and western blot analysis of αSMA and Fibronectin. N=3 (***p<0.001, **p<0.01, *p<0.05 vs. Control+TGFβ).
# Western Blotting: Cells were plated in EMEM containing 10% FBS overnight. Media was exchanged with EMEM containing 0.1% FBS for 24 hours. Prior to protein isolation cells were treated with the indicated concentration of compounds for the indicated time. Total protein was isolated using RIPA buffer (pH 8.0) containing Pierce Phosphatase Inhibitor (Thermo) and Halt Protease Inhibitor Cocktail (Thermo). Lysate total protein concentration was determined using Pierce BCA Protein Assay Kit (Thermo) and samples were run on a 10% polyacrylamide gel. Blots were incubated overnight with primary antibodies: pYAP (Ser 127, Cell Signaling D9W21), YAP/TAZ (Cell Signaling D24E4), GAPDH (Cell Signaling 14C10), HSC70 (Santa Cruz sc-7298), αSMA (Abcam ab5694), and fibronectin (Santa Cruz sc-9068) diluted 1:1000 in Li-Cor Odyssey Blocking Buffer. Blots were washed with TBS-Tween before 60 minute incubation with IR-dye-conjugated secondary antibodies (Li-Cor) diluted 1:10,000. Plates were imaged via a Li-Cor OdysseyXL system with quantification performed via densitometry. […]
smiles,measurement,setting,value
Oc1cc2c(cc1O)[C@H]1c3ccccc3CN[C@@H]1CC2 (racemic) [Dihydrexidine],proliferation of lung fibroblasts,"[1]; 4 days, ET-1, LPA, TGFβ or CTGF +/− 10 μM DHX",blocks proliferation
same,IPF fibroblast and normal lung fibroblast co-culture proliferation,"[1]; co-culture about 1:1, ratio of IPF/HLF cells every 24 hours",selectively slows proliferation in IPF fibroblasts
same,TGFβ-stimulated accumulation of collagen I and fibronectin,[2],dose-dependently reversed
same,TGFβ-mediated HSC expression of SMA and FN protein (western blotting),[3],significant reversal of both
